Data taken from PubChem BioAssay (NCI).
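Five compound concentrations were applied to cells in 96-well plates for 48 hours; endpoints were derived by simple linear interpolation of the resulting dose-response curve. Definition used: TGI = concentration required for complete inhibition of growth.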

Assays:
Test in all cases: NCI tumour cell line growth inhibition, 48 h
XF 498 CNS = system: XF 498 CNS
KM20L2 colon = system: KM20L2 colon
DMS 273 small cell lung = system: DMS 273 small cell lung
LXFL 529 NSCLC = system: LXFL 529 NSCLC
DMS 114 small cell lung = system: DMS 114 small cell lung
M19-MEL melanoma = system: M19-MEL melanoma
HOP-18 NSCLC = system: HOP-18 NSCLC
SNB-78 CNS = system: SNB-78 CNS

`NCCCOc1ccc([N+](=O)[O-])cc1Cl` gave a TGI (XF 498 CNS) of over 100 µM, a TGI (KM20L2 colon) of over 100 µM and a TGI (DMS 273 small cell lung) of over 100 µM. For the same compound, the TGI (LXFL 529 NSCLC) was over 100 µM, the TGI (DMS 114 small cell lung) was over 100 µM and the TGI (M19-MEL melanoma) was over 100 µM.
`[N-]=[N+]=NC(CCl)c1cn([C@H]2C[C@H](O)[C@@H](CO)O2)c(=O)[nH]c1=O` (stereo partly specified) gave a TGI (HOP-18 NSCLC) of over 100 µM, a TGI (KM20L2 colon) of over 100 µM and a TGI (DMS 273 small cell lung) of over 100 µM. The TGI (SNB-78 CNS) was over 100 µM, the TGI (LXFL 529 NSCLC) was over 100 µM and the TGI (DMS 114 small cell lung) was over 100 µM. It also gave a TGI (M19-MEL melanoma) of over 100 µM.
In the case of `O=c1cc(-c2ccccc2)c2ccccc2[nH]1`, the TGI (HOP-18 NSCLC) is reported as over 100 µM, the TGI (DMS 273 small cell lung) is reported as over 100 µM and the TGI (LXFL 529 NSCLC) is reported as over 100 µM. It also gave a TGI (DMS 114 small cell lung) of 51.4 µM and a TGI (M19-MEL melanoma) of over 100 µM.
For `CN(Cc1ccccc1)C(=NC#N)N(Cc1ccccc1)Cc1ccccc1`, the TGI (KM20L2 colon) was 56.2 µM, the TGI (DMS 273 small cell lung) was 41.8 µM and the TGI (SNB-78 CNS) was 77.1 µM. The TGI (LXFL 529 NSCLC) was 70.2 µM and the TGI (M19-MEL melanoma) was 54.4 µM.
`Cc1ccc(NCC(=O)N2CC(=O)Nc3ccccc32)c(C)c1` was tested, and the TGI (HOP-18 NSCLC) was over 100 µM, the TGI (XF 498 CNS) was over 100 µM and the TGI (KM20L2 colon) was over 100 µM. It also gave a TGI (DMS 273 small cell lung) of over 100 µM, a TGI (SNB-78 CNS) of over 100 µM and a TGI (LXFL 529 NSCLC) of over 100 µM. It also gave a TGI (M19-MEL melanoma) of over 100 µM.
`Cc1c2ccncc2c(C)c2c1[nH]c1ccc(OC(C)C)cc12` showed a TGI (HOP-18 NSCLC) of 2.93 µM, a TGI (XF 498 CNS) of 2.91 µM and a TGI (KM20L2 colon) of 2.59 µM. For the same compound, the TGI (DMS 273 small cell lung) was 2.07 µM, the TGI (SNB-78 CNS) was 6.05 µM and the TGI (LXFL 529 NSCLC) was 2.1 µM. The TGI (DMS 114 small cell lung) was 3.24 µM and the TGI (M19-MEL melanoma) was 3.42 µM.
For `CC(C)=CC1C[C@H](C2CC=C3C2(C)CCC2[C@@]3(C)C(=O)CC3[C@]2(C)C=CC(=O)[C@]3(C)CO)CO1` (stereo partly specified), the TGI (HOP-18 NSCLC) was 30.1 µM, the TGI (XF 498 CNS) was 12.9 µM and the TGI (KM20L2 colon) was 19.1 µM. It also gave a TGI (DMS 273 small cell lung) of 18.4 µM, a TGI (SNB-78 CNS) of 48.4 µM and a TGI (LXFL 529 NSCLC) of 12.1 µM. It also gave a TGI (DMS 114 small cell lung) of 15.9 µM and a TGI (M19-MEL melanoma) of 16.7 µM.
